Laboratory results from patent publication US11759435B2, “Dihydrochalcone derivatives influencing inflammatory states” (SYMRISE AG, priority 2016, dated 2023).

System: IL-8 release by HGF-1 cells
Assay: Anti-inflammatory action in HGF-1 cells: IL-8 release after PG-LPS stimulation (Example TS1)
Type: cell-based
Conditions: Homo sapiens, co-incubation with 10 μg/ml PG-LPS, 6 h, % IL-8 release vs PG-LPS control, read-out: IL-8 T/C [%]
Procedure: Anti-inflammatory action in human gingival fibroblastic cells (HGF-1)
DMEM containing 10% FBS, 1% penicillin/streptomycin and 4% glutamine was used as the medium. For determination of the anti-inflammatory action the cells were incubated with 10 μg/ml PG-LPS for 6 hrs. […] In each case 4 samples with two technical replicates were measured. In addition to this control the cells were co-incubated with
(a) 10 μg/ml PG-LPS and also with
After incubation the cell culture medium was transferred into an Eppendorf reaction vessel and at 4° C. for 10 min subjected to centrifugation (1000×g) in order to separate the cell debris. The supernatant was stored at −80° C. until analysis.

O=C(CCc1ccc(O)cc1)c1c(O)cc(O)cc1O [Compound 4]
activity at 1 µM (HGF1, 1 μM test compound): 106%
activity at 100 µM (HGF1, 100 μM test compound): 50%
